Measurements: ChEMBL document CHEMBL3351759, “Synthesis and antitumor activity of novel 3-oxo-23-hydroxybetulinic acid derivatives” (Eur J Med Chem, 2014)

Columns and labels:
[1] = Antiproliferative activity against human HL60 cells after 72 hrs MTT assay; type: functional, cell-based; conditions: HL-60, 72 h
[2] = Antiproliferative activity against human Bel7402 cells after 72 hrs MTT assay; type: functional, cell-based; conditions: Bel-7402, 72 h
[3] = Antiproliferative activity against human SF763 cells after 72 hrs MTT assay; type: functional, cell-based; conditions: SF763, 72 h
[4] = tested on: HeLa; assay: Antiproliferative activity against human HeLa cells after 72 hrs MTT assay; type: functional, cell-based
[5] = tested on: B16; assay: Antiproliferative activity against mouse B16 cells after 72 hrs MTT assay; type: functional, cell-based; conditions: B16, 72 h
[6] = tested on: H22; assay: Antitumor activity against […] H22 cells transplanted in ICR mouse assessed as tumor growth inhibition at 30 mg/kg, ip administered 7 days post tumor transplantation; type: functional; conditions: 168 h, route intraperitoneal
[7] = tested on: B16; assay: Antitumor activity against mouse B16 cells transplanted in ICR mouse assessed as tumor growth inhibition at 30 mg/kg, ip administered 7 days post tumor transplantation; type: functional; conditions: 168 h, route intraperitoneal
[8] = tested on: Mus musculus; assay: Toxicity in […] H22 cells transplanted ICR mouse assessed as mouse survival at 30 mg/kg, ip administered 7 days post tumor transplantation; type: organism-based; parameters: dose 30 mg/kg, route intraperitoneal; conditions: in vivo, 168 h
[9] = tested on: Mus musculus; assay: Toxicity in […] H22 cells transplanted ICR mouse assessed as mouse body weight at 30 mg/kg, ip administered 7 days post tumor transplantation (reference value: 18.4 to 18.9g); type: organism-based; parameters: dose 30 mg/kg, route intraperitoneal; conditions: in vivo, 168 h
[10] = tested on: Mus musculus; assay: Toxicity in mouse […] cells transplanted ICR mouse assessed as mouse survival at 30 mg/kg, ip administered 7 days post tumor transplantation; type: organism-based; parameters: dose 30 mg/kg, route intraperitoneal; conditions: in vivo, 168 h
[11] = tested on: Mus musculus; assay: Toxicity in mouse […] cells transplanted ICR mouse assessed as mouse body weight at 30 mg/kg, iv administered 7 days post tumor transplantation (reference value: 18.3 to 18.6g); type: organism-based; parameters: dose 30 mg/kg, route intravenous; conditions: in vivo, 168 h
[12] = tested on: H22; assay: Antitumor activity against human H22 cells transplanted in ICR mouse assessed as tumor growth inhibition at 30 mg/kg, iv administered 7 days post tumor transplantation; conditions: 168 h, read-out: INH
[13] = tested on: B16; assay: Antitumor activity against mouse B16 cells transplanted in ICR mouse assessed as tumor growth inhibition at 30 mg/kg, iv administered 7 days post tumor transplantation; type: functional; conditions: B16, 168 h
[14] = tested on: Mus musculus; assay: Toxicity in mouse […] cells transplanted ICR mouse assessed as mouse survival at 30 mg/kg, iv administered 7 days post tumor transplantation; type: organism-based; parameters: dose 30 mg/kg, route intravenous; conditions: in vivo, 168 h
[15] = tested on: Mus musculus; assay: Toxicity in mouse B6 cells transplanted ICR mouse assessed as mouse body weight at 30 mg/kg, iv administered 7 days post tumor transplantation (reference value: 18.2 +/- 0.5g); type: organism-based; parameters: dose 30 mg/kg, route intravenous; conditions: in vivo, 168 h

SMILES	IC50 [1] [µM]	IC50 [2] [µM]	IC50 [3] [µM]	IC50 [4] [µM]	IC50 [5] [µM]	inhibition in vivo at 30 mg/kg [6] [%]	inhibition in vivo at 30 mg/kg [7] [%]	Activity [8]	Activity [9] [g]	Activity [10]	Activity [11] [g]	inhibition in vivo at 30 mg/kg [12] [%]	inhibition in vivo at 30 mg/kg [13] [%]	Activity [14]	Activity [15] [g]
C=C(C)[C@@H]1CC[C@]2(C(=O)O)CC[C@]3(C)[C@H](CC[C@@H]4[C@@]5(C)CC[C@H](O)[C@@](C)(CO)[C@@H]5CC[C@]43C)[C@@H]12	45.1	39.7	43.4	52.4	29.9	27.8	32.4	Non-toxic	26.1	Non-toxic	26.7				
C=C(C)[C@@H]1CC[C@]2(C(=O)NCCN)CC[C@]3(C)[C@H](CC[C@@H]4[C@@]5(C)CCC(=O)[C@@](C)(COC(C)=O)[C@@H]5CC[C@]43C)[C@@H]12	8.64	7.22	6.23	10.6	5.58	51.8	62.7	Non-toxic	27.2	Non-toxic	26.9				
C=C(C)[C@@H]1CC[C@]2(C(=O)O)CC[C@]3(C)[C@H](CC[C@@H]4[C@@]5(C)CCC(=O)[C@@](C)(CO)[C@@H]5CC[C@]43C)[C@@H]12	36.1	33.8	29.3	39.2	20.6	39.5	48.1	Non-toxic	26.8	Non-toxic	27.3				
O=P1(N(CCCl)CCCl)NCCCO1 (configuration not stated) [CYCLOPHOSPHAMIDE ANHYDROUS]												53.7			
O=c1[nH]cc(F)c(=O)[nH]1 [FLUOROURACIL]													70.3	Non-toxic	26.2
